Data on 28 compounds can be found in article PMC6104608, “Design, synthesis, and evaluation of curcumin analogues as potential inhibitors of bacterial sialidase” (Journal of Enzyme Inhibition and Medicinal Chemistry, 2018).

Data set [1] deals with T1, Vibrio cholerae sialidase (Vibrio cholerae serotype O1, UniProt P0C6E9).
T1 construct: purchased Sigma 72197
The data set is described as follows: biochemical.

In data set [2] the target is T2, S. pneumoniae Nan A (Streptococcus pneumoniae, UniProt P62575).
T2 construct: 6x His-tag (C); made in house; host or cells: E. coli BL21 (DE3)
T2 sequence (P62575 319-822 limits assumed): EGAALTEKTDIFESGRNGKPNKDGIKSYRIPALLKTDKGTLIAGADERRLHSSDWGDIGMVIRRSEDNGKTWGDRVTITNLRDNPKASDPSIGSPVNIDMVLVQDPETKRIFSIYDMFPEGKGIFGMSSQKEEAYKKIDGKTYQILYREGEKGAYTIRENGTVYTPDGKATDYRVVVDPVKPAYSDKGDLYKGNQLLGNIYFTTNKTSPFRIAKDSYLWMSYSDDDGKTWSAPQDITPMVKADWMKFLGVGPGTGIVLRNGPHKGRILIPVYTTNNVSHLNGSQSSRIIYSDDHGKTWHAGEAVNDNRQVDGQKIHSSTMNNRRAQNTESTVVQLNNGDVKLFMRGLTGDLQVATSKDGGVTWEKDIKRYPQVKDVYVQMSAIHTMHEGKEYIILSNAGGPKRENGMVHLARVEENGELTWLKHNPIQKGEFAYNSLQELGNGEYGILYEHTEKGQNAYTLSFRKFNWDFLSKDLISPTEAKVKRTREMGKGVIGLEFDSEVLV
Description: Fluorescence-based inhibition assay of S. pneumoniae Nan A with MUNANA substrate. In kind it is biochemical. Conditions: for IC50: 2.2 nM Nan A, 50 µM substrate, pH 7.5, triplicate, read-out: IC50 against S. pneumoniae Nan A.

The target of data set [3] is T2, S. pneumoniae Nan A. Description: Enzyme kinetic study (inhibition mechanism and Ki) on Nan A. It counts as biochemical. The following applies: for Inhibition type against Nan A: Lineweaver-Burk and Dixon plots; for Ki: nonlinear regression, SigmaPlot Enzyme Kinetics, read-out: Ki against Nan A.

T1 sequence (P0C6E9 25-781): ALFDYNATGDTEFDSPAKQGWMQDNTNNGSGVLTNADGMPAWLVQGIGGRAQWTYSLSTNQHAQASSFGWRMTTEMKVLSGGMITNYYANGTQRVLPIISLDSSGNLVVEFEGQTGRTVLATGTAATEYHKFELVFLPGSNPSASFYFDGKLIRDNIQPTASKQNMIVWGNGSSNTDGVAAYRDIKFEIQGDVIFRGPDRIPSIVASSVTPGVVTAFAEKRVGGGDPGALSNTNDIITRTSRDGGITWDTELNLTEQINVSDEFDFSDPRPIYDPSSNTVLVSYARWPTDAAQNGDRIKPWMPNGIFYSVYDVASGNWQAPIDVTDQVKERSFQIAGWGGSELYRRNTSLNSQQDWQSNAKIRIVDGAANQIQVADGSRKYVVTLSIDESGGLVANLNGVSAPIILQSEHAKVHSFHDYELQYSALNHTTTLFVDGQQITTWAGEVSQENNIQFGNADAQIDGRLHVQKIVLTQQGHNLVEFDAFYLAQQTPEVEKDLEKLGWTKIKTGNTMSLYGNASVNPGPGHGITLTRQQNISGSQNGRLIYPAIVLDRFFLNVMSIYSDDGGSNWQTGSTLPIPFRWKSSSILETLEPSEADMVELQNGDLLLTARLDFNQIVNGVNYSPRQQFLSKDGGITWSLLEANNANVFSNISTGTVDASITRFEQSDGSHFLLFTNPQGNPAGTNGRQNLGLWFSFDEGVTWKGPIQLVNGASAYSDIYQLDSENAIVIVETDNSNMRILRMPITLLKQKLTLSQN

For orientation: IC50 means the concentration at which inhibition is half-maximal. `COc1ccc(/C=C/C(=O)/C=C(O)/C=C/c2ccc(OC)c(OC)c2)cc1OC` [Compound 4c, 1,7-Bis(3,4-dimethoxyphenyl)-5-hydroxyhepta-1,4,6-trien-3-one]: the IC50 in data set [1] was found to be 21500 ± 7000 nM; on S. pneumoniae Nan A [2], 3400 ± 1000 nM.

Consider `COc1cc(C=Cc2cc(C=Cc3ccc(O)c(OC)c3)[nH]n2)ccc1O` [Compound 8], for which the IC50 in data set [1] was 41600 ± 18700 nM; on S. pneumoniae Nan A [2], 6200 ± 1500 nM.

Broadly, the melting point is the temperature, or range, at which the solid turns liquid. The term Ki denotes the equilibrium dissociation constant of an inhibitor or competing ligand from its target. For the compound `COc1cc(/C=C/C(=O)/C=C(O)/C=C/c2ccc(N)cc2)ccc1O` [Compound 5q, 1-(4-Aminophenyl)-5-hydroxy-7-(4-hydroxy-3-methoxyphenyl)hepta-1,4,6-trien-3-one], the melting point lay within 99 to 100 °C. Further, the midpoint of inhibition in data set [1], the IC50, lay at 2900 ± 900 nM. Moreover, on S. pneumoniae Nan A [3], the “Inhibition type against Nan A” value is “noncompetitive inhibition” and the inhibitory constant (Ki) is 800 nM. Further, the half-inhibitory concentration (IC50) at S. pneumoniae Nan A [2] came to 1600 ± 100 nM.

`COc1cc(/C=C/C(=O)/C=C(O)/C=C/c2ccc(C(F)(F)F)cc2)ccc1O` [Compound 5k, 5-Hydroxy-7-(4-hydroxy-3-methoxyphenyl)-1-(4-(trifluoromethyl)phenyl)hepta-1,4,6-trien-3-one] returned a melting point of 158 to 160 °C. For the same compound, the IC50 on S. pneumoniae Nan A [2] came out at 1000 ± 100 nM.

Turning to `COc1cc(/C=C/C(=O)/C=C(O)/C=C/c2ccc(N(C)C)cc2)ccc1O` [Compound 5r, 1-(4-(Dimethylamino)phenyl)-5-hydroxy-7-(4-hydroxy-3-methoxyphenyl)hepta-1,4,6-trien-3-one], the half-maximal inhibitory concentration (IC50) was found to be 1900 ± 200 nM in data set [1] and 1500 ± 200 nM at S. pneumoniae Nan A [2].

Take `COc1ccc(/C=C/C(O)=C/C(=O)/C=C/c2ccc(O)c(OC)c2)cc1O` [Compound 5c, 5-Hydroxy-7-(4-hydroxy-3-methoxyphenyl)-1-(3-hydroxy-4-methoxyphenyl)hepta-1,4,6-trien-3-one]: the melting point fell in the range of 137 to 140 °C. Further, half-maximal inhibition in data set [1] (IC50) was put at 7700 ± 700 nM. Besides, the concentration for half-maximal inhibition (IC50) at S. pneumoniae Nan A [2] was 1000 ± 400 nM.

As for `COc1cc(C=CC(O)=CC(=O)C=Cc2cccnc2)ccc1O` [Compound 5g, 5-Hydroxy-7-(4-hydroxy-3-methoxyphenyl)-1-(pyridin-3-yl)hepta-1,4,6-trien-3-one], the melting point was 185 °C (dec.). In data set [1], this compound returned an IC50 of 43600 ± 100 nM. Also, the IC50 on S. pneumoniae Nan A [2] amounted to 4400 ± 100 nM.

As for `COc1cc(/C=C/C(=O)/C=C(O)/C=C/c2ccc(N3CCCCC3)cc2)ccc1O` [Compound 5s, 5-Hydroxy-7-(4-hydroxy-3-methoxyphenyl)-1-(4-(piperidin-1-yl)phenyl)hepta-1,4,6-trien-3-one], the melting point lay within 204 to 205 °C. The IC50 at S. pneumoniae Nan A [2] is 1500 ± 100 nM.

In the case of `COc1cc(/C=C/C(=O)/C=C(O)/C=C/c2ccc(OC(C)=O)c(OC)c2)ccc1OC(C)=O` [Compound 7, 3-Hydroxy-5-oxohepta-1,3,6-triene-1,7-diyl)bis(2-methoxy-4,1-phenylene) diacetate], the values for the concentration for half-maximal inhibition (IC50) (in data set [1]; at S. pneumoniae Nan A [2]) were 37500 ± 3500 nM and 2600 ± 600 nM, respectively.

In the case of `COc1cc(/C=C/C(O)=C/C(=O)/C=C/c2ccc(OC)c(OC)c2)ccc1O` [Compound 5a, 7-(3,4-Dimethoxyphenyl)-5-hydroxy-1-(4-hydroxy-3-methoxyphenyl)hepta-1,4,6-trien-3-one], the concentration for half-maximal inhibition (IC50) in data set [1] came to 11700 ± 200 nM; on S. pneumoniae Nan A [2], 1500 ± 700 nM.

Regarding `COc1cc(/C=C/C(=O)/C=C(O)/C=C/c2ccc(O)cc2)ccc1O` [Compound 5p, 5-Hydroxy-7-(4-hydroxy-3-methoxyphenyl)-1-(4-hydroxyphenyl)hepta-1,4,6-trien-3-one], the half-inhibitory concentration (IC50) in data set [1] amounted to 4300 ± 700 nM; on S. pneumoniae Nan A [2], 600 ± 200 nM.

In turn, `COC(=O)CCCOc1ccc(C=CC(=O)C=C(O)C=Cc2ccc(O)c(OC)c2)cc1OC` [Compound 5i, Methyl 4-(4-(5-hydroxy-7–(4-hydroxy-3-methoxyphenyl)-3-oxohepta-1,4,6-trien-1-yl)-2-methoxyphenoxy)-butanoate] displayed a melting point of 100 to 101 °C. For the same compound, the midpoint of inhibition in data set [1], the IC50, lay at 9500 ± 1500 nM. In addition, at S. pneumoniae Nan A [2], the half-maximal inhibitory concentration (IC50) was 1000 ± 500 nM.

For the compound `COc1cc(/C=C/C(=O)/C=C(O)/C=C/c2ccc(Br)cc2)ccc1O` [Compound 5m, 1-(4-Bromophenyl)-5-hydroxy-7-(4-hydroxy-3-methoxyphenyl)hepta-1,4,6-trien-3-one], the melting point was in the range of 148 to 149 °C. Also, the concentration for half-maximal inhibition (IC50) on S. pneumoniae Nan A [2] is 1000 ± 200 nM.

The compound `COc1ccc(C=CC(=O)C=C(O)C=Cc2ccc(OC)c(O)c2)cc1O` [Compound 4b, 5-Hydroxy-1,7-bis(3-hydroxy-4-methoxyphenyl)hepta-1,4,6-trien-3-one] came in with a melting point of 182 to 183 °C. In data set [1], the IC50 was 7600 ± 500 nM. For the same compound, the half-maximal inhibitory concentration (IC50) on S. pneumoniae Nan A [2] is 1000 ± 400 nM.

`O=C(C=Cc1ccc(O)c(O)c1)C=C(O)C=Cc1ccc(O)c(O)c1` [Compound 4d, 1,7-bis(3,4-dihydroxyphenyl)-5-hydroxyhepta-1,4,6-trien-3-one]: the melting point is 300 °C (dec.). In addition, in data set [1], the IC50 amounted to 11900 ± 2000 nM. In addition, at S. pneumoniae Nan A [2], the concentration for half-maximal inhibition (IC50) came to 1500 ± 700 nM.

As for `COc1ccc(/C=C/C(=O)/C=C(O)/C=C/c2ccc(O)c(O)c2)cc1O` [Compound 5e, 1-(3,4-Dihydroxyphenyl)-5-hydroxy-7-(3-hydroxy-4-methoxyphenyl)hepta-1,4,6-trien-3-one], the melting point lay in the range of 203 to 204 °C. In addition, half-maximal inhibition in data set [1] (IC50) required 4800 ± 1500 nM. Besides, at S. pneumoniae Nan A [3], the “Inhibition type against Nan A” value is “competitive inhibition” and the inhibitory constant (Ki) was 140 nM. In addition, on S. pneumoniae Nan A [2], the half-inhibitory concentration (IC50) was 200 ± 100 nM. At S. pneumoniae Nan A [2] (IC50 ratio versus curcumin (4a)), the “fold improvement in Nan A inhibitory activity over curcumin” value was determined as 3.0 fold.

The compound `COc1cc(/C=C/C(=O)/C=C(O)/C=C/c2ccc([N+](=O)[O-])cc2)ccc1O` [Compound 5j, 5-Hydroxy-7-(4-hydroxy-3-methoxyphenyl)-1-(4-nitrophenyl)hepta-1,4,6-trien-3-one] showed a melting point of 204 to 205 °C. Also, the IC50 in data set [1] stood at 6900 ± 1800 nM. The IC50 on S. pneumoniae Nan A [2] worked out at 900 ± 300 nM.

For `COc1cc(CCC(=O)/C=C(\O)CCc2ccc(O)c(OC)c2)ccc1O` [Compound 6, 1,7-Bis(4-hydroxy-3-methoxyphenyl)heptane-3,5-dione], the IC50 on S. pneumoniae Nan A [2] turned out to be 82100 ± 7600 nM.

Compound `CCOc1cc(/C=C/C(O)=C/C(=O)/C=C/c2ccc(O)c(OC)c2)ccc1O` [Compound 5f, 1-(3-Ethoxy-4-hydroxyphenyl)-5-hydroxy-7-(4-hydroxy-3-methoxyphenyl)hepta-1,4,6-trien-3-one] had a melting point of 182 to 183 °C. Moreover, 6700 ± 600 nM corresponded to half-maximal inhibition in data set [1] (IC50). At S. pneumoniae Nan A [2], the IC50 amounted to 1500 ± 800 nM.

With `COc1cc(/C=C/C(=O)/C=C(O)/C=C/c2ccc(O)c(OC)c2)ccc1O` [Compound 4a, curcumin], the IC50 turned out to be 5300 ± 700 nM in data set [1] and 600 ± 100 nM at S. pneumoniae Nan A [2]. Besides, the “Inhibition type against Nan A” value on S. pneumoniae Nan A [3] is recorded as “noncompetitive inhibition”. Besides, the Ki at S. pneumoniae Nan A [3] amounted to 1300 nM.

`O=C(C=Cc1ccc(O)cc1)C=C(O)C=Cc1ccc(O)cc1` [Compound 4e, 5-Hydroxy-1,7-bis(4-hydroxyphenyl)hepta-1,4,6-trien-3-one] gave a half-maximal inhibitory concentration (IC50) in data set [1] of 15100 ± 100 nM. Moreover, at S. pneumoniae Nan A [3], the “Inhibition type against Nan A” value is “noncompetitive inhibition” and the Ki was found to be 1200 nM. The concentration for half-maximal inhibition (IC50) at S. pneumoniae Nan A [2] came to 4000 ± 1200 nM.

`COc1ccc(/C=C/C(O)=C/C(=O)/C=C/c2ccc(OC)c(OC)c2)cc1O` [Compound 5b, 7-(3,4-Dimethoxyphenyl)-5-hydroxy-1-(3-hydroxy-4-methoxyphenyl)hepta-1,4,6-trien-3-one] gave a melting point of 155 to 158 °C. Further, it took 9200 ± 200 nM to reach half-maximal inhibition in data set [1] (IC50). In addition, the IC50 on S. pneumoniae Nan A [2] amounted to 600 ± 100 nM.

For `COc1cc(/C=C/C(=O)/C=C(O)/C=C/c2ccc(O)c(O)c2)ccc1O` [Compound 5d, 1-(3,4-Dihydroxyphenyl)-5-hydroxy-7-(4-hydroxy-3-methoxyphenyl)hepta-1,4,6-trien-3-one], the 50% inhibitory concentration (IC50) in data set [1] amounted to 2700 ± 800 nM; at S. pneumoniae Nan A [2] it was 700 ± 200 nM.

Compound `COc1cc(/C=C/C(=O)/C=C(O)/C=C/c2ccc(F)cc2)ccc1O` [Compound 5l, 1-(4-Fluorophenyl)-5-hydroxy-7-(4-hydroxy-3-methoxyphenyl)hepta-1,4,6-trien-3-one] gave a melting point of 146 to 147 °C. For the same compound, at S. pneumoniae Nan A [2], the IC50 worked out at 1800 ± 200 nM.

As to `COc1ccc(/C=C/C(O)=C/C(=O)/C=C/c2ccc(O)c(OC)c2)cc1` [Compound 5o, 5-Hydroxy-7-(4-hydroxy-3-methoxyphenyl)-1-(4-methoxyphenyl)hepta-1,4,6-trien-3-one], the melting point was in the range of 143 to 145 °C. This compound gave an IC50 in data set [1] of 4200 ± 800 nM. In addition, the IC50 at S. pneumoniae Nan A [2] was 1200 ± 100 nM.

The compound `COc1cc(/C=C/C(=O)/C=C(O)/C=C/c2ccc(NC(C)=O)cc2)ccc1O` [Compound 5n, N-(4–(5-Hydroxy-7–(4-hydroxy-3-methoxyphenyl)-3-oxohepta-1,4,6-trien-1-yl)phenyl)acetamide] yielded a melting point of 183 to 185 °C. For the same compound, inhibition in data set [1] was half-maximal at 6800 ± 800 nM (IC50). Besides, the IC50 at S. pneumoniae Nan A [2] amounted to 1800 ± 400 nM.

In turn, `COc1cc(C=CC(O)=C2CCCC(=Cc3ccc(O)c(OC)c3)C2=O)ccc1O` [Compound 4f, 2–(1-Hydroxy-3-(4-hydroxy-3-methoxyphenyl)allylidene)-6-(4-hydroxy-3-methoxybenzylidene)cyclohexan-1-one] registered a melting point of 182 to 183 °C. In data set [1], this compound registered a concentration for half-maximal inhibition (IC50) of 24900 ± 1800 nM. Further, the IC50 at S. pneumoniae Nan A [2] was 4700 ± 500 nM.

`COc1cc(/C=C/C(=O)/C=C(O)/C=C/c2ccccc2)ccc1O` [Compound 5h, 5-Hydroxy-7-(4-hydroxy-3-methoxyphenyl)-1-phenylhepta-1,4,6-trien-3-one] returned a melting point of 135 to 137 °C. On S. pneumoniae Nan A [2], the IC50 was 7100 ± 100 nM.
